Test results published in patent US8232401B2 (Japan Tobacco Inc., priority 2002, dated 2012).

These molecules were tested against T1, HIV integrase (Human immunodeficiency virus type 1 group M subtype B, UniProt P12497, F1332H) (assay: Determination of enzyme (HIV integrase) inhibitory activity (strand transfer, microtiter plate, absorbance at 450 nm)). Details: recombinant HIV integrase (F185H) expressed in E. coli; donor DNA on streptavidin plate, digoxigenin target DNA; 37° C.
T1 construct: HIV integrase full length gene; made in house; host or cells: Escherichia coli BL21(DE3)
Assay type: biochemical, HIV (Human Immunodeficiency Virus (type 1))
Description: The following explains evaluation methods of the HIV integrase inhibitory activity of the compound of the present invention.
(i) Construction of Recombinant Integrase Gene Expression System
(ii) Production and Purification of Integrase Protein
Escherichia coli recombinant BL21(DE3) transformed with plasmid pET21a-IN-F185H obtained in (i) was shake cultured at 30° C. in a liquid medium containing ampicillin. When the culture reached the logarithmic growth phase, isopropyl-β-D-thiogalactopyranoside was added to promote expression of integrase gene. The culture was continued for 3 hrs to promote accumulation of the integrase protein. The recombinant E. coli was collected in pellets by centrifugal separation and preserved at −80° C.
The E. coli was suspended in Lysis buffer (20 mM HEPES (pH 7.5), 5 mM DTT, 10 mM CHAPS, 10% glycerol) containing 1M sodium chloride and subjected to repeat pressurization and depressurization for rupture, and centrifugal separation at 4° C., 40,000×g, 60 min to recover a water-soluble fraction (supernatant). This was diluted 10-fold with Lysis buffer free of sodium chloride, mixed with SP-Sepharose (Pharmacia Corporation) and stirred at 4° C. for 60 min to allow adsorption of integrase protein to the resin. The resin was washed with Lysis buffer containing 100 mM sodium chloride and the integrase protein was eluted with Lysis buffer containing 1M sodium chloride.
The eluted integrase protein solution was applied to a Superdex 75 (Pharmacia Corporation) column for gel filtration. The protein was eluted with Lysis buffer containing 1M sodium chloride.
The obtained fractions of the integrate protein were collected and preserved at −80° C.
(iii) Preparation of DNA Solution
The following DNA synthesized by Greiner was dissolved in TE buffer (10 mM Tris-hydrochloric acid (pH 8.0), 1 mM EDTA) and mixed with donor DNA, target DNA, each complementary strand (+ and − strands) to 1 μM. The mixture was heated at 95° C. for 5 min, 80° C. for 10 min, 70° C. for 10 min, 60° C. for 10 min, 50° C. for 10 min and 40° C. for 10 min and preserved at 25° C. to give a double stranded DNA, which was used for the test. Donor DNA (− strand having biotin attached to the 5′ terminal)
(iv) Determination of Enzyme (HIV Integrase) Inhibitory activity
The donor DNA was diluted with TE buffer to 10 nM, of which 50 μl was added to each well of streptavidin-coated microtiter plate (Roche) and allowed to adsorb at 37° C. for 60 min. The DNA was washed with phosphate buffer (Dulbecco PBS, Sanko Junyaku Co., Ltd.) containing 0.1% Tween 20 and phosphate buffer. Then, a reaction mixture (70 μl) having the following composition, a test substance (10 μl) diluted with the reaction mixture and […] integrase protein (10 μl) were added to each well and reacted at 37° C. for 60 min.
Then, 50 nM target DNA (1.0 μl) was added, reacted at 37° C. for 10 min and washed with phosphate buffer containing 0.1% Tween 20 to stop the reaction.
Then, 100 mU/ml peroxidase labeled anti-digoxigenin antibody solution (Roche, 100 μl) was added, and the mixture was reacted at 37° C. for 60 min, followed by washing with phosphate buffer containing 0.1% Tween 20.
A peroxidase color solution (Bio Rad, 100 μl) was added and allowed to react at room temperature for 4 min. The color reaction was stopped by adding 1N sulfuric acid (100 μl). The absorbance at 450 nm was measured.
The HIV integrase inhibitory activity (IC50) of the compound of the present invention was calculated from the inhibition rate according to the following formula. […] Evaluation of Antiviral Activity

Structure (SMILES)	IC50 [nM]
O=C(O)c1cn(CCO)c2ccc(Cc3c(F)cccc3Cl)cc2c1=O [Example 1-33, 6-(2-Chloro-6-fluorobenzyl)-1-(2-hydroxyethyl)-4-oxo-1,4-dihydroquinoline-3-carboxylic acid]	140
O=C(O)c1cn(CCCCCO)c2ccc(Cc3cccc(Cl)c3Cl)cc2c1=O [Example 1-34, 6-(2,3-Dichlorobenzyl)-1-(5-hydroxypentyl)-4-oxo-1,4-dihydroquinoline-3-carboxylic acid]	350
Cn1cc(C(=O)O)c(=O)c2cc(Cc3cccc(Cl)c3Cl)ccc21 [Example 1-36, 6-(2,3-Dichlorobenzyl)-1-methyl-4-oxo-1,4-dihydroquinoline-3-carboxylic acid]	180
CCn1cc(C(=O)O)c(=O)c2cc(Cc3cccc(Cl)c3Cl)ccc21 [Example 1-37, 6-(2,3-Dichlorobenzyl)-1-ethyl-4-oxo-1,4-dihydroquinoline-3-carboxylic acid]	110
CCCn1cc(C(=O)O)c(=O)c2cc(Cc3cccc(Cl)c3Cl)ccc21 [Example 1-38, 6-(2,3-Dichlorobenzyl)-4-oxo-1-propyl-1,4-dihydroquinoline-3-carboxylic acid]	170
CCCCn1cc(C(=O)O)c(=O)c2cc(Cc3cccc(Cl)c3Cl)ccc21 [Example 1-39, 1-Butyl-6-(2,3-Dichlorobenzyl)-4-oxo-1,4-dihydroquinoline-3-carboxylic acid]	180
O=C(O)c1cn(CC2CCCC2)c2ccc(Cc3cccc(Cl)c3Cl)cc2c1=O [Example 1-40, 1-Cyclopentylmethyl-6-(2,3-dichlorobenzyl)-4-oxo-1,4-dihydroquinoline-3-carboxylic acid]	110
CS(=O)(=O)CCn1cc(C(=O)O)c(=O)c2cc(Cc3cccc(Cl)c3Cl)ccc21 [Example 1-41, 6-(2,3-Dichlorobenzyl)-1-(2-methanesulfonylethyl)-4-oxo-1,4-dihydroquinoline-3-carboxylic acid]	210
O=C(O)c1cn(CC2CCCCC2)c2ccc(Cc3cccc(Cl)c3Cl)cc2c1=O [Example 1-42, 1-Cyclohexylmethyl-6-(2,3-dichlorobenzyl)-4-oxo-1,4-dihydroquinoline-3-carboxylic acid]	130
O=C(O)c1cn(CC(O)c2ccccc2)c2ccc(Cc3cccc(Cl)c3Cl)cc2c1=O (stereo not shown) [Example 1-43, 6-(2,3-Dichlorobenzyl)-1-(2-hydroxy-2-phenylethyl)-4-oxo-1,4-dihydroquinoline-3-carboxylic acid]	24
O=C(O)c1cn(CCF)c2ccc(Cc3cccc(Cl)c3Cl)cc2c1=O [Example 1-44, 6-(2,3-Dichlorobenzyl)-1-(2-fluoroethyl)-4-oxo-1,4-dihydroquinoline-3-carboxylic acid]	51
O=C(O)c1cn(CCc2ccccn2)c2ccc(Cc3cccc(Cl)c3Cl)cc2c1=O [Example 1-45, 6-(2,3-Dichlorobenzyl)-4-oxo-1-(2-pyridin-2-ylethyl)-1,4-dihydroquinoline-3-carboxylic acid]	210
NCCn1cc(C(=O)O)c(=O)c2cc(Cc3cccc(Cl)c3Cl)ccc21 [Example 1-46, 1-(2-Aminoethyl)-6-(2,3-dichlorobenzyl)-4-oxo-1,4-dihydroquinoline-3-carboxylic acid]	420
CC(C)(O)Cn1cc(C(=O)O)c(=O)c2cc(Cc3cccc(Cl)c3Cl)ccc21 [Example 1-47, 6-(2,3-Dichlorobenzyl)-1-(2-hydroxy-2-methylpropyl)-4-oxo-1,4-dihydroquinoline-3-carboxylic acid]	98
CC(=O)NCCn1cc(C(=O)O)c(=O)c2cc(Cc3cccc(Cl)c3Cl)ccc21 [Example 1-48, 1-(2-Acetylaminoethyl)-6-(2,3-dichlorobenzyl)-4-oxo-1,4-dihydroquinoline-3-carboxylic acid]	380
CCOC(=O)NCCn1cc(C(=O)O)c(=O)c2cc(Cc3cccc(Cl)c3Cl)ccc21 [Example 1-49, 6-(2,3-Dichlorobenzyl)-1-(2-ethoxycarbonylaminoethyl)-4-oxo-1,4-dihydroquinoline-3-carboxylic acid]	53

Structure (SMILES)	IC50 [nM]
O=C(O)c1cn(CCO)c2ccc(Cc3cccc(F)c3F)cc2c1=O [Example 1-50, 6-(2,3-Difluorobenzyl)-1-(2-hydroxyethyl)-4-oxo-1,4-dihydroquinoline-3-carboxylic acid]	110
O=C(O)c1cn(CCO)c2ccc(Cc3ccc(F)cc3Cl)cc2c1=O [Example 1-51, 6-(2-Chloro-4-fluorobenzyl)-1-(2-hydroxyethyl)-4-oxo-1,4-dihydroquinoline-3-carboxylic acid]	180
O=C(O)c1cn(CCO)c2ccc(Cc3cccc(Cl)c3Cl)cc2c1=O [Example 1-63]	20
O=C(O)c1cn(CCO)c2ccc(Cc3c(F)cccc3Cl)cc2c1=O [Example 1-64]	56
O=C(O)c1cn(CCc2ccccc2)c2ccc(Cc3ccccc3Cl)cc2c1=O [Example 1-65, 6-(2-Chlorobenzyl)-4-oxo-1-phenethyl-1,4-dihydroquinoline-3-carboxylic acid]	120
O=C(O)c1cn(CCO)c2ccc(Cc3cccc(F)c3Cl)cc2c1=O [Example 1-66, 6-(2-Chloro-3-fluorobenzyl)-1-(2-hydroxyethyl)-4-oxo-1,4-dihydroquinoline-3-carboxylic acid]	49
O=C(O)c1cn(CCO)c2ccc(Cc3cccc([N+](=O)[O-])c3)cc2c1=O [Example 1-67]	790
CSCn1cc(C(=O)O)c(=O)c2cc(Cc3cccc(Cl)c3Cl)ccc21 [Example 1-68, 6-(2,3-Dichlorobenzyl)-1-methylsulfanylmethyl-4-oxo-1,4-dihydroquinoline-3-carboxylic acid]	49
CS(=O)(=O)Cn1cc(C(=O)O)c(=O)c2cc(Cc3cccc(Cl)c3Cl)ccc21 [Example 1-69, 6-(2,3-Dichlorobenzyl)-1-methanesulfonylmethyl-4-oxo-1,4-dihydroquinoline-3-carboxylic acid]	74
CC(C)(C)NS(=O)(=O)Cn1cc(C(=O)O)c(=O)c2cc(Cc3cccc(Cl)c3Cl)ccc21 [Example 1-70, 1-tert-Butylsulfamoylmethyl-6-(2,3-dichlorobenzyl)-4-oxo-1,4-dihydroquinoline-3-carboxylic acid]	82
CNS(=O)(=O)Cn1cc(C(=O)O)c(=O)c2cc(Cc3cccc(Cl)c3Cl)ccc21 [Example 1-71, 6-(2,3-Dichlorobenzyl)-1-methylsulfamoylmethyl-4-oxo-1,4-dihydroquinoline-3-carboxylic acid]	13
CN(C)S(=O)(=O)Cn1cc(C(=O)O)c(=O)c2cc(Cc3cccc(Cl)c3Cl)ccc21 [Example 1-72, 6-(2,3-Dichlorobenzyl)-1-dimethylsulfamoylmethyl-4-oxo-1,4-dihydroquinoline-3-carboxylic acid]	25
O=C(O)c1cn(CCO)c2ccc(Cc3c(F)ccc(F)c3Cl)cc2c1=O [Example 1-73, 6-(2-Chloro-3,6-difluorobenzyl)-1-(2-hydroxyethyl)-4-oxo-1,4-dihydroquinoline-3-carboxylic acid]	31
O=C(O)c1cn(CC(O)CO)c2ccc(Cc3cccc(Cl)c3Cl)cc2c1=O (stereo not shown) [Example 1-74, 6-(2,3-Dichlorobenzyl)-1-(2,3-Dihydroxypropyl)-4-oxo-1,4-dihydroquinoline-3-carboxylic acid]	98
NS(=O)(=O)Cn1cc(C(=O)O)c(=O)c2cc(Cc3c(F)cccc3Cl)ccc21 [Example 1-75, 6-(2-Chloro-6-fluorobenzyl)-1-sulfamoylmethyl-4-oxo-1,4-dihydroquinoline-3-carboxylic acid]	16
